From patent publication US20130302470A1, “L-amino-acid-containing feed additive in the form of fermentation-broth-based granules, and processes for its preparation” (EVONIK INDUSTRIES AG, priority 2012, published 2013)

How the values were obtained:
[1] = Hydrothermal stability, Experiment 9.1: extruded aquafeed (lysine recovery); format: physicochemical
Source text: (§1) So as to be able to assess what is known as the hydrothermal stability of the additives, and to compare them with each other, the production processes for producing pelleted and extruded aquafeed was reproduced on a small scale. In each case two feed blends which differ only in respect of the L-lysine additive were employed, mixture A being supplemented with 0.50% granular feed additive according to the present invention and mixture B with 0.32% Lys×HCl, which corresponded in each case to identical lysine base concentrations. The granular feed additive according to the invention contained 50.7% by weight of lysine in the form of lysine sulphate and 10% by weight of biomass.
The process parameters, such as, for example, residence time, temperature or water content, were set at values which are typically used in practice. […] The hydrothermal stabilities of the test additives upon processing in the processes in question can be assessed relative to one another via the recovery rates. […]
The hydrothermal stability of the granules according to the present invention was compared with the hydrothermal stability of Lys×HCl. The hydrothermal stability of the additives for extruded shrimp/prawn feed was examined and assessed during the entire respective process. […]
In the amino acid determination, the supplemented amino acid lysine was determined. […]

[2] = Hydrothermal stability, Experiment 9.2: pelleted aquafeed (lysine recovery); format: physicochemical; settings: pelleting process
Source text: as §1
The process parameters, such as, for example, residence time, temperature or water content, were set at values which are typically used in practice. During the experiments, samples of the feed blend were taken after the respective individual process steps and subjected to extensive amino acid analysis. The hydrothermal stabilities of the test additives upon processing in the processes in question can be assessed relative to one another via the recovery rates.
The feed blends corresponded to representative state-of-the-art formulas. […]
In the amino acid determination, the supplemented amino acid lysine was determined. […] Thereafter, the amino acids were subjected to photometric quantitation at 570 nm. […]

rainbow trout = settings: aquafeed with different lysine concentrations, FIG. 8; cited from earlier work

## Cl.NCCCC[C@H](N)C(=O)O [lysine HCl, L-lysine monohydrochloride]
[1]; extrusion process
  Lysine lost during the processing to give shrimp/prawn feed: 8.6%
[1]; extrusion, lysine sulphate granules versus lysine HCl
  Stability of the lysine in the shrimp/prawn feed production process (comparison): markedly more unstable
[2]
  Lysine loss upon pelleting: approximately 3.3%
Rainbow trout
  Effect of the nature of the lysine source on the weight increase of trout: no effect on the weight increase
